The nature of data set [1]: Central nervous system (CNS) penetration study in mice. Format: in vivo. The conditions noted are these: female, BALB/cCrSlc, mouse, ip, 30 mg/kg intraperitoneally, three hours later, cerebrum and plasma by LC-MS/MS, read-out: Brain-to-plasma concentration ratio (Kp value). On the procedure: To evaluate the central nervous system (CNS) penetration of a test substance, a central nervous system penetration study was conducted using mice.
Six-week-old female BALB/cCrSlc mice (Japan SLC) were used. The test substance suspended in 0.5% methylcellulose was intraperitoneally administered to mice at a dose of 30 mg/kg. Three hours later, blood was collected from the abdominal vena cava under isoflurane anesthesia, and plasma was obtained by centrifugation. After exsanguination from the abdominal vena cava, the cerebrum was collected.
The drug concentrations of the collected plasma and cerebrum were measured by LC-MS/MS. To determine the brain penetration of the drug, the brain-to-plasma concentration ratio (Kp value) was calculated.

Data set [2] addresses T1, C-terminal catalytic domain of MALT1 (amino acid residues 329-824) (Homo sapiens, UniProt Q9UDY8).
T1 construct: C-terminal catalytic domain of MALT1 (amino acid residues 329-824)
T1 sequence (Q9UDY8 329-824): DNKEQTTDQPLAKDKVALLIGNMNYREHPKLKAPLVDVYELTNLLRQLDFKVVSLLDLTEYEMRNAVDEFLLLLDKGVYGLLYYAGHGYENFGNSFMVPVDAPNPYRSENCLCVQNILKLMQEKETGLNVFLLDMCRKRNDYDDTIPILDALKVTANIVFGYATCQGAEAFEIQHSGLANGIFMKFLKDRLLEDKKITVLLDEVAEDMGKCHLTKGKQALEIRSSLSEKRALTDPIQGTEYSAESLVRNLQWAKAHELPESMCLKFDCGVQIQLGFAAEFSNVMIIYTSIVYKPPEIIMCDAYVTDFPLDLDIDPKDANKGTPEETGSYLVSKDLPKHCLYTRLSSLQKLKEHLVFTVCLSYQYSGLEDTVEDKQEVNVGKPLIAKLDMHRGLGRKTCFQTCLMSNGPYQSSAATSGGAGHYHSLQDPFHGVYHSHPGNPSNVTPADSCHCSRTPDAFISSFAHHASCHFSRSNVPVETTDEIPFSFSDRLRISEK
Nature of the data set: MALT1 protease inhibitory activity (enzyme activity inhibition assay, fluorogenic substrate). Format: biochemical. The conditions noted are these: substrate Ac-Leu-Arg-Ser-Arg-AMC 50 µM; 30°C for 2 hours; fluorescence. In outline:
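Human MALT1 catalytic domain (residues 329-824) with Ac-Leu-Arg-Ser-Arg-AMC at 50 µM final, pH 7.5 Tris/HEPES buffer with 0.8 M Na citrate, DTT and CHAPS. Compounds at 0.1 to 10000 nM final, n = 2; reaction 2 h at 30°C. Fluorescence (ex 380/em 460 nm) fitted to a 2-parameter logistic model for IC50.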

A further data set has as its system OCI-Ly3 cell lines. Kind of data set: Proliferation inhibition test, ABC-DLBCL cell line OCI-Ly3. The format is cell-based. The conditions noted are these: Homo sapiens; OCI-Ly3 (ABC-DLBCL, NF-κB pathway-dependent); 96 hours; Cell Counting Kit-8; read-out: Proliferation inhibitory activity against OCI-Ly3 IC50. In outline:
(§1)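 Cells exposed 96 h at 37 °C to compound at final 10–10,000 nM: OCI-Ly3 (ABC-DLBCL, NF-κB-dependent, IMDM/10% FBS) and SU-DHL-4 (GCB-DLBCL, NF-κB-independent negative control, RPMI-1640/10% FBS). Viability by CCK-8 absorbance at 450 nm after 4 h; IC50 from 2-parameter logistic regression.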

Data set [3] has as its system HEK293/API2-MALT1/NF-κB reporter cells. Kind of data set: Inhibition of reporter activity in HEK293/API2-MALT1/NF-κB reporter cells. The conditions noted are these: Homo sapiens, 24 hours with test substance, One-glo luminescence. Format: cell-based. In outline:
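HEK293 cells with constitutive NF-κB activation by API2-MALT1 fusion, carrying an NF-κB reporter; 293T/CMV reporter cells served as negative control. Cells seeded 24 h, then exposed to compound at final 10,000, 1,000, 100 and 10 nM for 24 h at 37 °C; luminescence read with One-glo, IC50 by non-linear regression.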

The next data set has as its system SU-DHL-4 cell lines. Kind of data set: Proliferation inhibition test, GCB-DLBCL cell line SU-DHL-4 (negative control line). The conditions noted are these: Homo sapiens; SU-DHL-4 (GCB-DLBCL, NF-κB pathway-independent, negative control); 96 hours; Cell Counting Kit-8; read-out: Proliferation inhibitory activity against SU-DHL-4 IC50. Format: cell-based. In outline: as §1

The structures appear in SMILES notation.

For the compound `C[C@@H]1CC(C(=O)c2cn(CC#N)c3nc(-n4nccn4)c(Cl)cc23)C[C@@H](C)N1c1ncc(F)cc1I` (stereo partly drawn) [Example 3, {5-chloro-3-[(2R,6R)-1-(5-fluoro-3-iodopyridin-2-yl)-2,6-dimethylpiperidin-4-carbonyl]-6-(2H-1,2,3-triazol-2-yl)-1H-pyrrolo[2,3-b]pyridin-1-yl}acetonitrile], in data set [1], the Kp at 3 h was determined as 0.73. The IC50 in data set [2] stood at 43 nM; with OCI-Ly3 cell lines, 580 nM; in data set [3], 200 nM; with SU-DHL-4 cell lines it was 6300 nM.
In the same order, the values of `Cn1cc(C(=O)c2cnn(-c3cncc4c(F)cccc34)c2C(F)(F)F)c2cc(Cl)c(-n3nccn3)nc21` [Example 6, [5-chloro-1-methyl-6-(2H-1,2,3-triazol-2-yl)-1H-pyrrolo[2,3-b]pyridin-3-yl][1-(8-fluoroisoquinolin-4-yl)-5-(trifluoromethyl)-1H-pyrazol-4-yl]methanone] are 0.83, 13 nM, 150 nM, 75 nM and 2300 nM.
The corresponding values for `C[C@@H]1CC(C(=O)c2cn(C)c3nc(-c4ncccn4)c(Cl)cc23)C[C@@H](C)N1c1ncc(F)cc1I` (stereo partly drawn) [Example 11, [5-chloro-1-methyl-6-(pyrimidin-2-yl)-1H-pyrrolo[2,3-b]pyridin-3-yl][(2R,6R)-1-(5-fluoro-3-iodopyridin-2-yl)-2,6-dimethylpiperidin-4-yl]methanone] are 3, 54 nM, 290 nM, 230 nM and 8900 nM.
In the same order, the values of `C[C@@H]1CC(C(=O)c2cn(CCCO)c3nc(-c4ncccn4)c(Cl)cc23)C[C@@H](C)N1c1ncc(F)cc1I` (stereo partly drawn) [Example 9, [5-chloro-1-(3-hydroxypropyl)-6-(pyrimidin-2-yl)-1H-pyrrolo[2,3-b]pyridin-3-yl][(2R,6R)-1-(5-fluoro-3-iodopyridin-2-yl)-2,6-dimethylpiperidin-4-yl]methanone] are 1.4, 69 nM, 480 nM, 140 nM and 5100 nM.
In the case of `C[C@@H]1CC(C(=O)c2cn(C3COC3)c3nc(-n4nccn4)c(Cl)cc23)C[C@@H](C)N1c1ncc(F)cc1I` (stereo partly drawn) [Example 1, [5-chloro-1-(oxetan-3-yl)-6-(2H-1,2,3-triazol-2-yl)-1H-pyrrolo[2,3-b]pyridin-3-yl][(2R,6R)-1-(5-fluoro-3-iodopyridin-2-yl)-2,6-dimethylpiperidin-4-yl]methanone], in data set [1], the Kp at 3 h stood at 1.6. For the same compound, the IC50 in data set [2] worked out at 45 nM; in the data set with OCI-Ly3 cell lines it was 620 nM; in data set [3] it was 170 nM; in the data set on SU-DHL-4 cell lines, 5400 nM.
In the same order, the values of `CC(C)n1cc(C(=O)C2C[C@@H](C)N(c3ncc(F)cc3I)[C@H](C)C2)c2cc(Cl)c(-n3nccn3)nc21` (stereo partly drawn) [Example 17, [5-chloro-1-isopropyl-6-(2H-1,2,3-triazol-2-yl)-1H-pyrrolo[2,3-b]pyridin-3-yl][(2R,6R)-1-(5-fluoro-3-iodopyridin-2-yl)-2,6-dimethylpiperidin-4-yl]methanone] are 0.26, 160 nM, 690 nM, 300 nM and 6700 nM.
The corresponding values for `CCCn1cc(C(=O)c2cnn(-c3cncc4c(F)cccc34)c2C(F)(F)F)c2cc(Cl)c(-n3nccn3)nc21` [Example 8, [5-chloro-1-propyl-6-(2H-1,2,3-triazol-2-yl)-1H-pyrrolo[2,3-b]pyridin-3-yl][1-(8-fluoroisoquinolin-4-yl)-5-(trifluoromethyl)-1H-pyrazol-4-yl]methanone] are 0.52, 39 nM, 110 nM, 280 nM and 2400 nM.
The corresponding values for `CC(=O)N1CC(n2cc(C(=O)C3C[C@@H](C)N(c4ncc(F)cc4I)[C@H](C)C3)c3cc(Cl)c(-n4nccn4)nc32)C1` (stereo partly drawn) [Example 5, 1-(3-{5-chloro-3-[(2R,6R)-1-(5-fluoro-3-iodopyridin-2-yl)-2,6-dimethylpiperidin-4-carbonyl]-6-(2H-1,2,3-triazol-2-yl)-1H-pyrrolo[2,3-b]pyridin-1-yl}azetidin-1-yl)ethan-1-one] are 0.12, 35 nM, 310 nM, 160 nM and 3600 nM.
As to `CCn1cc(C(=O)C2C[C@@H](C)N(c3ncc(F)cc3I)[C@H](C)C2)c2cc(Cl)c(-c3ncccn3)nc21` (stereo partly drawn) [Example 18, [5-chloro-1-ethyl-6-(pyrimidin-2-yl)-1H-pyrrolo[2,3-b]pyridin-3-yl][(2R,6R)-1-(5-fluoro-3-iodopyridin-2-yl)-2,6-dimethylpiperidin-4-yl]methanone], the Kp at 3 h in data set [1] is 0.63. Moreover, the IC50 came to 65 nM in data set [2], 480 nM in the data set with OCI-Ly3 cell lines, 100 nM in data set [3] and 6700 nM with SU-DHL-4 cell lines.

Values taken from patent EP4772507A1, “AZAINDOLE COMPOUND AND MEDICAL DRUG” (Nippon Shinyaku Co., Ltd., priority 2023, dated 2025).
